Molecular target: T1, Recombinant human mPGES-1 (Homo sapiens, UniProt O14684)
T1 sequence (O14684 1-152): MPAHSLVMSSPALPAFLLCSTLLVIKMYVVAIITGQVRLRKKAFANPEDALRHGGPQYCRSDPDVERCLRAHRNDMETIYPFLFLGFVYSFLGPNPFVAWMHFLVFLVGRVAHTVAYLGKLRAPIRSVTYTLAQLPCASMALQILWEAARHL
Test: In-vitro mPGES-1 enzyme inhibition assay (PGE2 formation from PGH2, HTRF detection)
Format: biochemical
Details: for inhibition at 1 µM: 1 μM test compound, read-out: Percentage inhibition at 1 μM; for inhibition at 1 µM / inhibition at 10 µM: recombinant human mPGES-1 microsomal fraction; for inhibition at 10 µM: 10 μM test compound, read-out: Percentage inhibition at 10 μM; for IC50: class symbols, selected examples
Procedure, shortened: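 Crude microsomal fractions containing recombinant human mPGES-1 (40-60 μg/mL protein) convert PGH2 to PGE2 in the presence of reduced glutathione, with 0.5% final DMSO. Reaction stopped with stannous chloride, and PGE2 measured by anti-PGE2 antibody (HTRF) detection. IC50 by nonlinear regression of % inhibition versus uninhibited enzyme control.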

inhibition at 1 µM | inhibition at 10 µM | IC50 | Compound
96.9% | 98.3% | < 50 nM | Cn1c(Nc2c(F)cccc2Cl)nc2cc(C(=O)Nc3ccc(C4CC4)cc3)c3c(c21)CC(C)(C)O3 [Example-167, 2-((2-Chloro-6-fluorophenyl)amino)-N-(4-cyclopropylphenyl)-1,7,7-trimethyl-7,8-dihydro-1H-benzofuro[4,5-d]imidazole-5-carboxamide]
92.5% | 97.7% | < 50 nM | CC1(C)Cc2c(c(C(=O)Nc3cccc(C(F)(F)F)c3F)cc3nc(Nc4c(F)cccc4Cl)[nH]c23)O1 [Example-168, 2-((2-Chloro-6-fluorophenyl)amino)-N-(2-fluoro-3-(trifluoromethyl)phenyl)-7,7-dimethyl-7,8-dihydro-1H-benzofuro[4,5-d]imidazole-5-carboxamide]
80.8% | 89.4% | < 50 nM | Cc1nc2c(o1)c(C(=O)Nc1ccc(F)cc1)cc1nc(Nc3c(Cl)cccc3Cl)[nH]c12 [Example-177, 7-[(2,6-Dichlorophenyl)amino]-N-(4-fluorophenyl)-2-methyl-8H-imidazo[4,5-e][1,3]benzoxazole-4-carboxamide]
91.4% | 98.2% | < 50 nM | Cc1nc2c(o1)c(C(=O)Nc1ccc(C(F)(F)F)cc1)cc1nc(Nc3c(Cl)cccc3Cl)[nH]c12 [Example-178, 7-[(2,6-Dichlorophenyl)amino]-2-methyl-N-[4-(trifluoromethyl)phenyl]-8H-imidazo[4,5-e][1,3]benzoxazole-4-carboxamide]
93.7% | 97.4% | < 50 nM | Cc1nc2c(o1)c(C(=O)Nc1ccc(Br)cc1)cc1nc(Nc3c(Cl)cccc3Cl)[nH]c12 [Example-179, N-(4-Bromophenyl)-7-[(2,6-dichlorophenyl)amino]-2-methyl-8H-imidazo[4,5-e][1,3]benzoxazole-4-carboxamide]
98.7% | 97.3% | < 50 nM | Cc1nc2c(o1)c(C(=O)Nc1ccc(C(C)(C)C)cc1)cc1nc(Nc3c(Cl)cccc3Cl)[nH]c12 [Example-180, N-(4-tert-Butylphenyl)-7-[(2,6-dichlorophenyl)amino]-2-methyl-8H-imidazo[4,5-e][1,3]benzoxazole-4-carboxamide]
89.5% | 93.9% | < 50 nM | CCCCCCNC(=O)c1cc2nc(Nc3c(Cl)cccc3Cl)[nH]c2c2nc(C)oc12 [Example-181, 7-[(2,6-Dichlorophenyl)amino]-N-hexyl-2-methyl-8H-imidazo[4,5-e][1,3]benzoxazole-4-carboxamide]
97.5% | 93.1% | < 50 nM | Cc1nc2c(o1)c(C(=O)NCC1CCCCC1)cc1nc(Nc3c(Cl)cccc3Cl)[nH]c12 [Example-183, N-(Cyclohexylmethyl)-7-[(2,6-dichlorophenyl)amino]-2-methyl-8H-imidazo[4,5-e][1,3]benzoxazole-4-carboxamide]
96.9% | 95.9% | < 50 nM | CC(C)(C)c1ccc(NC(=O)c2cc3nc(Nc4c(Cl)cccc4Cl)[nH]c3c3nc(C4CC4)oc23)cc1 [Example-184, N-(4-tert-Butylphenyl)-2-cyclopropyl-7-[(2,6-dichlorophenyl)amino]-8H-imidazo[4,5-e][1,3]benzoxazole-4-carboxamide]
94.4% | 98.5% | < 50 nM | O=C(Nc1cc(C(F)(F)F)ccc1F)c1cc2nc(Nc3c(F)cccc3Cl)[nH]c2c2nc(C3CC3)oc12 [Example-185, 7-((2-Chloro-6-fluorophenyl)amino)-2-cyclopropyl-N-(2-fluoro-5-(trifluoromethyl)phenyl)-8H-imidazo[4′,5′:5,6]benzo[1,2-d]oxazole-4-carboxamide]
98.6% | 98.5% | < 50 nM | Cc1nc2c(o1)c(C(=O)Nc1cc(C(F)(F)F)ccc1F)cc1nc(Nc3c(F)cccc3Cl)[nH]c12 [Example-186, 7-((2-Chloro-6-fluorophenyl)amino)-N-(2-fluoro-5-(trifluoromethyl)phenyl)-2-methyl-8H-imidazol[4′,5′:5,6]-benzo[1,2-d]oxazole-4-carboxamide]
95.8% | 83% | < 50 nM | Cc1nc2c(o1)c(C(=O)Nc1ccc(F)c(C(F)(F)F)c1)cc1nc(Nc3c(F)cccc3Cl)[nH]c12 [Example-187, 7-((2-Chloro-6-fluorophenyl)amino)-N-(4-fluoro-3-(trifluoromethyl)phenyl)-2-methyl-8H-imidazo[4′,5′:5,6]benzo[1,2-d]oxazole-4-carboxamide]
98.1% | 99.4% | 50 to 100 nM | Cc1nc2c(o1)c(C(=O)NCc1ccccc1C(F)(F)F)cc1nc(Nc3c(Cl)cccc3Cl)[nH]c12 [Example-188, 7-[(2,6-Dichlorophenyl)amino]-2-methyl-N-[2-(trifluoromethyl)benzyl]-8H-imidazo[4,5-e][1,3]benzoxazole-4-carboxamide]
53.9% | 91.1% |  | Cc1nc2c(o1)c(C(=O)NC1CCC(F)(F)CC1)cc1nc(Nc3c(Cl)cccc3Cl)[nH]c12 [Example-189, 7-[(2,6-Dichlorophenyl)amino]-N-(4,4-difluorocyclohexyl)-2-methyl-8H-imidazo[4,5-e][1,3]benzoxazole-4-carboxamide]
81.2% | 89.5% | > 100 nM | Cc1nc2c(o1)c(C(=O)Nc1ccc(C(C)(C)C#N)cc1)cc1nc(Nc3c(Cl)cccc3Cl)[nH]c12 [Example-190, N-[4-(2-Cyanopropan-2-yl)phenyl]-7-[(2,6-dichlorophenyl)amino]-2-methyl-8H-imidazo[4,5-e][1,3]benzoxazole-4-carboxamide]
96.1% | 96.3% | < 50 nM | CC1(C)Cc2c(c(C(=O)Nc3ccc(C(F)(F)F)nc3)cc3nc(Nc4c(F)cccc4Cl)[nH]c23)O1 [Example-191, 2-((2-Chloro-6-fluorophenyl)amino)-7,7-dimethyl-N-(6-(trifluoromethyl)pyridin-3-yl)-7,8-dihydro-1H-benzofuro[4,5-d]imidazole-5-carboxamide]
97.1% | 96.5% | < 50 nM | Cc1cccc(Cl)c1Nc1nc2cc(C(=O)Nc3cc(F)c(F)cc3F)c3c(c2[nH]1)CC(C)(C)O3 [Example-192, 2-((2-Chloro-6-methylphenyl)amino)-7,7-dimethyl-N-(2,4,5-trifluorophenyl)-7,8-dihydro-1H-benzofuro[4,5-d]imidazole-5-carboxamide]
96.4% | 94.7% | < 50 nM | CC1(C)Cc2c(c(C(=O)Nc3cc(F)c(F)cc3F)cc3nc(Nc4c(F)cccc4Cl)[nH]c23)O1 [Example-193, 2-((2-Chloro-6-fluorophenyl)amino)-7,7-dimethyl-N-(2,4,5-trifluorophenyl)-7,8-dihydro-1H-benzofuro[4,5-d]imidazole-5-carboxamide]
99.2% | 100% |  | CC1(C)Cc2c(c(C(=O)Nc3ccc(C(F)(F)F)cc3F)cc3nc(Nc4c(Cl)cncc4Cl)[nH]c23)O1 [Example-194, 2-((3,5-Dichloropyridin-4-yl)amino)-N-(2-fluoro-4-(trifluoromethyl)phenyl)-7,7-dimethyl-7,8-dihydro-1H-benzofuro[4,5-d]imidazole-5-carboxamide]
98.8% | 99% | < 50 nM | CC1(C)Cc2c(c(C(=O)Nc3cc(C(F)(F)F)ccc3F)cc3nc(Nc4c(Cl)cncc4Cl)[nH]c23)O1 [Example-195, 2-((3,5-Dichloropyridin-4-yl)amino)-N-(2-fluoro-5-(trifluoromethyl)phenyl)-7,7-dimethyl-7,8-dihydro-1H-benzofuro[4,5-d]imidazole-5-carboxamide]
100% | 98.8% |  | CC1(C)Cc2c(c(C(=O)Nc3ccc(F)c(C(F)(F)F)c3)cc3nc(Nc4c(Cl)cncc4Cl)[nH]c23)O1 [Example-196, 2-((3,5-Dichloropyridin-4-yl)amino)-N-(4-fluoro-3-(trifluoromethyl)phenyl)-7,7-dimethyl-7,8-dihydro-1H-benzofuro[4,5-d]imidazole-5-carboxamide]
99.6% | 99.5% | < 50 nM | CC1(C)Cc2c(c(C(=O)Nc3ccc(F)cc3F)cc3nc(Nc4c(Cl)cncc4Cl)[nH]c23)O1 [Example-197, 2-((3,5-Dichloropyridin-4-yl)amino)-N-(2,4-difluorophenyl)-7,7-dimethyl-7,8-dihydro-1H-benzofuro[4,5-d]imidazole-5-carboxamide]
98.7% | 99.7% | < 50 nM | Cc1ccc(NC(=O)c2cc3nc(Nc4c(Cl)cncc4Cl)[nH]c3c3c2OC(C)(C)C3)c(Cl)c1 [Example-198, N-(2-Chloro-4-methylphenyl)-2-((3,5-dichloropyridin-4-yl)amino)-7,7-dimethyl-7,8-dihydro-1H-benzofuro[4,5-d]imidazole-5-carboxamide]
99.4% | 100% | < 50 nM | CC1(C)Cc2c(c(C(=O)Nc3cc(F)c(F)cc3F)cc3nc(Nc4c(Cl)cncc4Cl)[nH]c23)O1 [Example-199, 2-((3,5-Dichloropyridin-4-yl)amino)-7,7-dimethyl-N-(2,4,5-trifluorophenyl)-7,8-dihydro-1H-benzofuro[4,5-d]imidazole-5-carboxamide]

Reference: US8519149B2, “Tricyclic compounds as mPGES-1 inhibitors” (Glenmark Pharmaceuticals S.A., priority 2010, dated 2013)
